Where “and” joins values, the source holds several entries; their conditions need not be identical. Equal values may be shown once.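 Each compound was tested at five concentrations against cells in 96-well plates for 48 hours. GI50 = concentration required for 50% inhibition of growth. TGI denotes the concentration required for complete inhibition of growth.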
Tested on: DLD-1 colon
Experiment: NCI tumour cell line growth inhibition, 48 h

SMILES | TGI
COC(=O)[C@@]12C3=NO[C@]1(C(=O)OC)C(O[Si](C)(C)C(C)(C)C)[C@H]1OC(C)(C)O[C@H]1[C@@H]2C(OCc1ccccc1)CC3 (stereo not given in full) | > 100 µM
CCOC(=O)C1=C(C)CC2C(=O)OC(=O)C2C1(C)C (stereo not given) | > 100 µM

Tested on: T-47D breast
Experiment: NCI tumour cell line growth inhibition, 48 h

SMILES | GI50 | TGI
NC(CSC(c1ccccc1)(c1ccccc1)c1ccc2c(c1)OCO2)C(=O)O (stereo not given) | 0.597 µM | > 67.9 µM
O=C(NCCNc1nccc(-c2c(-c3cccc(O)c3)nc3sccn23)n1)c1ccccc1O | 3.65 µM | 20.5 µM
CCCCCCCC(=O)SCC/C=C/[C@@H]1CC(=O)NCc2cccc(n2)C2=N[C@@](C)(CS2)C(=O)N[C@@H](C(C)C)C(=O)N1 | 0.412 µM | 3 µM
C[C@@H](CS(C)(=O)=O)Nc1ncc2cc(Oc3ccc(F)cc3F)c(=O)n(C)c2n1 | > 25 µM | > 25 µM
COc1cc2c(c(OC)c1O)C(=O)C(OC)C(c1ccc(O)c(O)c1)O2 (stereo not given) | 0.513 µM | 92.4 µM
Cn1ccnc1C(=O)/C=C/c1ccc(CC(=O)Nc2ccc(Br)cc2)cc1 | 5.5 µM | > 16.7 µM
CCOC(=O)Nc1nc2ccc(OCC)cc2s1 | 28.8 µM | > 100 µM
COc1ccc2c(c1)C(=O)/C(=C/c1ccc(OCC(=O)Nc3nccs3)cc1)O2 | 7.05 µM | 31.9 µM
Cc1cnc(NC(=O)C(Cc2ccccc2)NC(=O)c2ccccc2)s1 (stereo not given) | 23.1 µM | 82.6 µM
CC(C)c1ccc(C(C)C(=O)N(CC2=C(C(C)c3ccccn3)c3ccccc3C2)C(C)C)cc1 (stereo not given) | 2.94 µM | > 100 µM
O[C@H]1[C@H]2c3cc4c(cc3CN3CCC(=C[C@@H]1O)[C@H]23)OCO4 | – | > 21.3 µM
O=[N+]([O-])c1cnc(Sc2ccncn2)s1 | 2.16 µM | 4.68 µM
O=C(Nc1ccc(I)cc1)c1cc([N+](=O)[O-])ccc1O | 3.87 µM | > 100 µM
Cc1cc(=O)n2[nH]c(-c3ccc(C(C)(C)C)cc3)cc2n1 | 4.43 µM | 79.8 µM
O=C(O)c1cc(C(=O)O)cc(N2C(=O)c3ccccc3C2=O)c1 | – | > 100 µM
CNC(=O)c1ccccc1Nc1nc(Nc2ccc(N3CCOCC3)cc2OC)ncc1Cl | 1.28 µM | > 36.1 µM
COc1c2ccoc2c(/C=C/C=O)c2oc(-c3ccccc3)cc(=O)c12 | 2.14 µM | 6.25 µM
O=C(CN1CCN(c2cc3c(cc2F)c(=O)c(C(=O)N/N=C/c2ccccc2O)cn3C2CC2)CC1)N/N=C\c1ccccc1O | 0.796 µM | > 100 µM
C=C(CNCCO)[C@@H]1CC[C@]2(CO)CC[C@]3(C)[C@H](CC[C@@H]4[C@@]5(C)CCC(N)C(C)(C)[C@@H]5CC[C@]43C)[C@@H]12 (stereo not given in full) | 2.07 µM | 3.95 µM
Nc1cc2nc3ccccc3sc-2cc1=O | 5.96 µM | 33.7 µM
COc1cc2nc(-c3ccc(C(F)(F)F)cc3)cc(OCCCN3CCC(O)CC3)c2cc1OC | 2.97 µM | 19.1 µM

SMILES | GI50 | TGI
O=C1NNC(=O)c2ccccc2SSc2ccccc2C(=O)NNC(=O)c2ccccc2SSc2ccccc21 | 2.34 µM | 50 µM and 8.18 µM
COc1cc(C(=O)/C=C/c2sc(Cl)nc2Cl)cc(OC)c1OC | 2.14 µM | 5.35 µM
COc1cc2nc(C)nc(N[C@H](C)c3cc(N)cc(C(F)(F)F)c3)c2cc1O[C@H]1CCOC1 | 16.3 µM | 41.4 µM
CC1=C(C(=O)Nc2ccc(F)c(Cl)c2)C(c2ccc(Cl)cc2)NC(=O)N1 (stereo not given) | > 100 µM | > 100 µM
Fc1ccc(Nc2ncnc3ccc(-c4cnc5[nH]ccc5c4)cc23)cc1Cl | 0.592 µM | 13.9 µM
Oc1ccc(Cl)cc1-c1cc(-c2ccccc2Cl)[nH]n1 | 1.61 µM | > 100 µM
CN(C)CCCNC1=C(Cl)C(=O)c2ccccc2C1=O | 2.94 µM | 9.33 µM
O=C(Nc1ccc(F)cc1F)c1cc(I)ccc1O | 1.99 µM | 6.8 µM
CCOc1ccccc1-n1c(CN2CCN(C(=O)COc3ccc(CNCCCCCCN4C5CCCC4CC(OC(=O)Nc4cc(C)ccc4OC)C5)cc3)CC2)nc2ccccc2c1=O (stereo not given) | 1.78 µM | 3.88 µM
CNC(=O)c1cc(Oc2ccc3nc(NC(=O)Nc4ccc(Cl)c(C(F)(F)F)c4)sc3c2)ccn1 | 0.723 µM | 3.65 µM
CC[C@@]12CCCN3CC[C@]4(c5cccc(OC)c5N(C(C)=O)[C@@H]4CC1)[C@H]32 | – | > 100 µM
CC(=O)[O][Hg][c]1c(N)c(C)cc(C)c1F | 1.39 µM | 4.47 µM
CSc1ccccc1C#C/C=C\C#Cc1ccccc1N1CCCC1=O | – | > 20.3 µM
NC1CCC(Nc2nc(NCc3ccc(-c4ccco4)nc3)c3ncn(C4CCCC4)c3n2)CC1 (stereo not given) | 0.0249 µM | –
O=C(CCl)N1c2ccccc2Oc2ccc3ccccc3c21 | 1.69 µM | 4.15 µM
CCCCCCCCSC1=CC(=O)c2nc3ccccc3c3ccnc1c23 | 84.5 µM | > 100 µM
Cc1ccc(-c2nnc(-c3ccc4ccccc4c3)o2)cc1 | – | > 100 µM
COc1ccc(-c2cc(-c3ccc(Nc4nc(Nc5ccccc5)nc(Nc5ccc(Cl)cc5)n4)cc3)nc(N)c2C#N)cc1 | 0.733 µM | 1.65 µM
O=c1n(CC2CO2)c(=O)n(CC2CO2)n1CC1CO1 (stereo not given) | 6.64 µM | > 100 µM
c1cc2c(cc1NC1=NCCO1)CCC2 | – | > 10 µM

Tested on: DMS 273 small cell lung
Experiment: NCI tumour cell line growth inhibition, 48 h

SMILES | TGI
COC(=O)[C@@]12C3=NO[C@]1(C(=O)OC)C(O[Si](C)(C)C(C)(C)C)[C@H]1OC(C)(C)O[C@H]1[C@@H]2C(OCc1ccccc1)CC3 (stereo not given in full) | > 100 µM

Tested on: KM20L2 colon
Experiment: NCI tumour cell line growth inhibition, 48 h

SMILES | TGI
COC(=O)[C@@]12C3=NO[C@]1(C(=O)OC)C(O[Si](C)(C)C(C)(C)C)[C@H]1OC(C)(C)O[C@H]1[C@@H]2C(OCc1ccccc1)CC3 (stereo not given in full) | > 100 µM

Tested on: PC-3 prostate
Experiment: NCI tumour cell line growth inhibition, 48 h

SMILES | GI50 | TGI
NC(CSC(c1ccccc1)(c1ccccc1)c1ccc2c(c1)OCO2)C(=O)O (stereo not given) | 0.521 µM | > 69.6 µM
O=C(NCCNc1nccc(-c2c(-c3cccc(O)c3)nc3sccn23)n1)c1ccccc1O | 4.36 µM | 55.1 µM
CCCCCCCC(=O)SCC/C=C/[C@@H]1CC(=O)NCc2cccc(n2)C2=N[C@@](C)(CS2)C(=O)N[C@@H](C(C)C)C(=O)N1 | 0.657 µM | > 33.3 µM
C[C@@H](CS(C)(=O)=O)Nc1ncc2cc(Oc3ccc(F)cc3F)c(=O)n(C)c2n1 | > 25 µM | > 25 µM
COc1cc2c(c(OC)c1O)C(=O)C(OC)C(c1ccc(O)c(O)c1)O2 (stereo not given) | 0.599 µM | > 50.6 µM
Cn1ccnc1C(=O)/C=C/c1ccc(CC(=O)Nc2ccc(Br)cc2)cc1 | 2.87 µM | 8.25 µM
CCOC(=O)Nc1nc2ccc(OCC)cc2s1 | > 100 µM | > 100 µM
COC(=O)[C@@H](C)C[C@H](Cc1ccc(F)cc1)NC(=O)c1csc([C@@H](C[C@H](C(C)C)N(C)C(=O)[C@@H](NC(=O)[C@H]2CCCCN2C)C(C)C)OC(C)=O)n1 | 0.00196 µM and 0.00756 µM | > 16.7 µM
